Results: patent publication EP0372541A1, “Method for imparting immunosuppression” (priority 1988, dated 1990)

How the values were obtained:
[1] = system: cyclosporine-treated renal transplant recipients; experiment: Randomized, double-blind, placebo controlled clinical study in renal transplant recipients on cyclosporine; type: in vivo, human; settings: for Acute Rejection / Creatinine / Creatinine Clearance: 200 µg Q.I.D. with cyclosporine
Excerpt: A randomized, double-blind, placebo controlled study was designed: (1) to determine the safety and efficacy of a PGE₁ prostaglandin in reducing cyclosporine-induced nephrotoxicity in renal transplant recipients; and (2) to examine the effects of the PGE₁ prostaglandin on the incidence rate of clinically important events such as acute transplant rejection.
The PGE, prostaglandin evaluated was misoprostol, ((±) methyl 11α, 16-dihydroxy-16-methyl-9-oxoprost-13E-en-1-oate). Subjects received the PGE₁ prostaglandin in dosages of 200 µg or a placebo four times a day (Q.I.D.) for the first twelve weeks following transplantation. A study population of 77 subjects was evaluated. Efficacy was assessed by a serial comparison of renal function and by measuring the duration and functional severity of transplant rejection, cyclosporine nephrotoxicity, and other episodes of acute renal failure in the PGE₁ prostaglandin and the placebo groups. Serial measurements of serum creatinine and creatinine clearance were used to determine trends and differences in renal function between treatment groups.
The subjects in the clinical study were first stratified into two groups according to the source of the allograft, cadaver or living-related donor. Members of each group were assigned at random in the order of enrollment to receive the PGE₁ prostaglandin or the placebo according to a computer-generated assignment schedule prepared prior to the start of the study. The purpose of this approach was to guarantee adequate randomization of subjects as a function of allograft source and probable post-transplantation function.
The administration of the prostaglandin began with the first dose of cyclosporine. The subjects received the .prostaglandin Q.I.D. given 30-60 minutes p.c. (after a meal) and h.s. (at night). The prostaglandin initially could be administered via a nasogastric tube. Following discharge of the patient from the hospital. the patient began to administer the placebo or prostaglandin and recording the dosing in a diary. The test article dosing remained one tablet Q.I D. continuing the 30-60 minute p.c and h.s. schedule.
Hematology and chemistry profiles were obtained on the first and seventh post-transplantation days and again after four weeks. A chemistry profile was obtained at eight and twelve weeks. A urinalysis was obtained on the first post-operative day and again after four weeks.
Twenty-four hour creatinine clearance measurements were obtained on post-operative days one, three, and seven, then weekly for three weeks and at four week intervals thereafter until the study was terminated.
Serum creatinine measurements were obtained on postoperative days 1, 3 and 7, and then at weeks 4, 8, 12 and 16.
Measurement of trough cyclosporine levels were required on days one, three, five and seven; twice during each of weeks two, three and four; and at least once during weeks eight, twelve and sixteen.
Acute renal failure was defined as the presence of any of the following: • 1) Any change in renal function which prompted the principal investigator to perform a diagnostic maneuver (e.g., measure of serum creatinine concentration or urinary sodium concentration) or therapeutic maneuver (e.g., give intravenous fluids) to investigate or treat the change. • 2) A rise in serum creatinine concentration from a stable base line of at least 0.2 mg/dl/day for two days or 0.3 mg/dl in one day. • 3) A fall in urine output to less than an average of 25 ml per hour for more than 24 hours.
After twelve weeks of treatment and four additional weeks of observation, the subject underwent a physical examination and a complete medical history was reviewed. The following laboratory tests were also obtained: hematology, PT/PTT, chemistry, urinalysis. creatinine clearance, cyclosporine level and serum beta HCG (where appropriate). In addition, any other measurements of creatinine concentration or clearance obtained during the post-treatment period were recorded.

[2] = system: mixed lymphocyte response; experiment: Mixed lymphocyte response (MLR) assay, tritiated thymidine incorporation; type: cell-based; settings: Figures 9 and 10; for inhibition of the mixed lymphocyte response in combination with cyclosporine: free acid added to cyclosporine; for inhibition of the mixed lymphocyte response in combination with methylprednisolone: free acid added to methylprednisolone
Excerpt: The mixed lymphocyte response is a clinically useful predictor of the immunosuppressive activity of drugs.The mixed lymphocyte response assay data shown below and in Figures 7-10 were obtained with the following method. A stimulator panel of Epstein-Barr virus (EBV) transformed continuous lymphoblastoid cell lines was employed to magnify responses. There were equal numbers of four cell lines with eight different HLA-DR antigens (two per cell line). Stimulator cells were irradiated (13,000 rad) before suspension in a modified RPMI medium. Responder lymphocytes were prepared from heparinized recipient blood by density gradient separation before suspension in glutamine with antibiotic-supplemented RPMI medium containing 10% autologous serum. Equal numbers of responder and stimulator cells (1x 10⁵ in 0.1 ml) were incubated with 0.05 ml of medium (control) or varying concentrations of the three prostaglandin analogs (misoprostol, enisoprost and misoprostol-free acid) or methylprednisolone or cyclosporine or combinations of these agents.
Following incubation at 37°C and 5% CO₂ for five days, one microcurie of tritiated thymidine was added and cell cultures incubated for six hours. Cells were then harvested. MLR responses for the three different prostaglandin analogs were then compared for several different concentrations (Figure 7). The effects of the prostaglandins were also compared to those of the control ethanol diluent (Figure 8).

[3] = 1 Month after renal transplantation
[4] = 2 Months after renal transplantation
[5] = 3 Months after renal transplantation
[6] = listed as PGE₁ prostaglandin free acid

| Structure (SMILES) | Acute Rejection [1, 3] [first episode/mo] | Creatinine [1, 3] [mg/dL] | Creatinine Clearance [1, 3] [ml/min/1.73m2] | Acute Rejection [1, 4] [first episode/mo] | Creatinine [1, 4] [mg/dL] | Creatinine Clearance [1, 4] [ml/min/1.73m2] | Acute Rejection [1, 5] [first episode/mo] | Creatinine [1, 5] [mg/dL] | Creatinine Clearance [1, 5] [ml/min/1.73m2] | renal function ([1]; cyclosporine-treated renal transplant recipients, versus placebo) | acute rejection versus placebo ([1]; during the three months of treatment, p = 0.015) | cyclosporine absorption (cyclosporine dosage and trough blood levels by HPLC) ([1]; human, in vivo) | cyclosporine nephrotoxicity (incidence rate of first episodes) ([1]; versus placebo, Figure 5) | inhibition of the mixed lymphocyte response in combination with cyclosporine [2] | inhibition of the mixed lymphocyte response in combination with cyclosporine [2, 6] | inhibition of the mixed lymphocyte response in combination with methylprednisolone [2] | inhibition of the mixed lymphocyte response in combination with methylprednisolone [2, 6] |
| --- | --- | --- | --- | --- | --- | --- | --- | --- | --- | --- | --- | --- | --- | --- | --- | --- | --- |
| CCCCC(C)(O)C/C=C/[C@H]1[C@H](O)CC(=O)[C@@H]1CCCCCCC(=O)OC (mixture of isomers) [PGE₁, (±) methyl 11α, 16-dihydroxy-16-methyl-9-oxoprost-13E-en-1-oate] | 3 | 1.6 ± 0.2 | 73 ± 5 | 2 | 1.4 ± 0.1 | 77 ± 6 | 2 | 1.4 ± 0.1 | 81 ± 5 | improved renal function | significantly reduced | no interference with cyclosporine absorption | no increase in cyclosporine nephrotoxicity |  |  |  |  |
| CCCCC(C)(O)CC=CC1C(O)CC(=O)C1CCCCCCC(=O)O (racemic) [misoprostol free acid] |  |  |  |  |  |  |  |  |  |  |  |  |  | clear evidence of enhancement of immunosuppressive activity | larger than additive effect | clear evidence of enhancement of immunosuppressive activity | larger than additive effect |
